Tests used:
PC-9 YVMA xenograft = test: Preclinical PK/TGI model for human dose prediction; set-up: species or system mice; conditions: PK/TGI model with predicted human PK parameters
Description: This preclinical mathematical model was built with input data from internal in vitro and in vivo data from efficacy experiments in PC-9 YVMA xenograft. Plasma exposure and tumor growth inhibition data from mice were used to train the model. The predicted human PK parameters were used to predict the human plasma profile in the preclinical PK/TGI model. In this setting the PK/TGI model was used to identify the required dose in human necessary to achieve a TGI >100%. This was predicted at 40 mg BID.

NSCLC = test: Phase Ia dose escalation trial: tumour response according to RECIST v1.1 in NSCLC patients; assay type: in vivo, human; conditions: regardless of confirmation, data lock 16 Mar. 2023
Excerpt: Tumour assessments should include computed tomography (CT) scans of the chest, abdomen/pelvis (or PET/CT) and a brain MRI at screening. If clinically indicated, imaging of any other known or suspected sites of disease (e.g. bone) using an appropriate method (CT scan, MRI, PET/CT, or bone scan) should be performed. The same radiographic procedure must be used throughout the trial. Assessments will be performed by the investigator at screening (≤28 days prior to initiation of treatment), every 2 cycles (6 weeks ±5 days), at the end-of-treatment (EOT) visit (if not performed within the previous 3 weeks), and at the discretion of the investigator, and copies may be collected by the sponsor or designee. Wherever possible the assessment schedule should not be changed, but if there is an interruption or delay to treatment, alteration of the tumour assessment schedule to align with clinical assessments is allowed. Additional unscheduled tumour assessments may be performed at the discretion of the investigator. If the patient stops trial medication for a reason other than progression, tumour assessment according to RECIST v1.1 continues until progression (or until one of the following occurs; death, lost to follow-up, end of the trial).
Tumour response is evaluated according to RECIST Version 1.1 (Eisenhauer E A, Therasse P, Bogaerts J, Schwartz L H, Sargent D, Ford R, et al. New response evaluation criteria in solid tumours: revised RECIST guideline (version 1.1). Eur J Cancer. 2009; 45:228-247). RECIST 1.1 is used for a) whole-body assessment (classical RECIST 1.1) and b) the tumour assessment of non-CNS areas. The assessment according to classical RECIST 1.1 by the investigator and/or the local radiologist is the basis for continuation or discontinuation of the trial in an individual patient (in addition to safety). No whole-body RECIST assessment is performed in the dose escalation part.

With `C=CC(=O)NC1CCN(c2ncc3ncnc(Nc4ccc(Oc5ccc6c(c5)ncn6C)c(C)c4)c3n2)CC1` [compound (1), N-{1-[8-({3-methyl-4-[(1-methyl-1H-1,3-benzodiazol-5-yl)oxy]phenyl}amino)-[1,3]diazino[5,4-d]pyrimidin-2-yl]piperidin-4-yl}prop-2-enamide] the “predicted dose in human necessary to achieve a TGI >100%” value (PC-9 YVMA xenograft) was 40 mg BID, the “Best overall response (RECIST 1.1): Complete response, %” value (NSCLC; 15 mg BID, 1 NSCLC patients) was 0.0% and the “Best overall response (RECIST 1.1): Non-CR/Non-PD, %” value (NSCLC; 15 mg BID, 1 NSCLC patients) was 0.0%. The “Best overall response (RECIST 1.1): Not evaluable, %” value (NSCLC; 15 mg BID, 1 NSCLC patients) was 0.0%, the “Best overall response (RECIST 1.1): Partial response, %” value (NSCLC; 15 mg BID, 1 NSCLC patients) was 0.0% and the “Best overall response (RECIST 1.1): Progressive disease, %” value (NSCLC; 15 mg BID, 1 NSCLC patients) was 0.0%. For the same molecule, the “Best overall response (RECIST 1.1): Stable disease, %” value (NSCLC; 15 mg BID, 1 NSCLC patients) was 100.0%, the “Best overall response (RECIST 1.1): Complete response, %” value (NSCLC; 30 mg BID, 2 NSCLC patients) was 0.0% and the “Best overall response (RECIST 1.1): Non-CR/Non-PD, %” value (NSCLC; 30 mg BID, 2 NSCLC patients) was 0.0%. For the same molecule, the “Best overall response (RECIST 1.1): Not evaluable, %” value (NSCLC; 30 mg BID, 2 NSCLC patients) was 0.0%, the “Best overall response (RECIST 1.1): Partial response, %” value (NSCLC; 30 mg BID, 2 NSCLC patients) was 50.0% and the “Best overall response (RECIST 1.1): Progressive disease, %” value (NSCLC; 30 mg BID, 2 NSCLC patients) was 0.0%. For the same molecule, the “Best overall response (RECIST 1.1): Stable disease, %” value (NSCLC; 30 mg BID, 2 NSCLC patients) was 50.0%, the “Best overall response (RECIST 1.1): Complete response, %” value (NSCLC; 60 mg BID, 3 NSCLC patients) was 0.0% and the “Best overall response (RECIST 1.1): Non-CR/Non-PD, %” value (NSCLC; 60 mg BID, 3 NSCLC patients) was 0.0%. The “Best overall response (RECIST 1.1): Not evaluable, %” value (NSCLC; 60 mg BID, 3 NSCLC patients) was 0.0%, the “Best overall response (RECIST 1.1): Partial response, %” value (NSCLC; 60 mg BID, 3 NSCLC patients) was 66.7% and the “Best overall response (RECIST 1.1): Progressive disease, %” value (NSCLC; 60 mg BID, 3 NSCLC patients) was 0.0%. The “Best overall response (RECIST 1.1): Stable disease, %” value (NSCLC; 60 mg BID, 3 NSCLC patients) was 33.3%, the “Best overall response (RECIST 1.1): Complete response, %” value (NSCLC; 60 mg QD, 2 NSCLC patients) was 0.0% and the “Best overall response (RECIST 1.1): Non-CR/Non-PD, %” value (NSCLC; 60 mg QD, 2 NSCLC patients) was 0.0%. The “Best overall response (RECIST 1.1): Not evaluable, %” value (NSCLC; 60 mg QD, 2 NSCLC patients) was 0.0%, the “Best overall response (RECIST 1.1): Partial response, %” value (NSCLC; 60 mg QD, 2 NSCLC patients) was 50.0% and the “Best overall response (RECIST 1.1): Progressive disease, %” value (NSCLC; 60 mg QD, 2 NSCLC patients) was 0.0%. For the same molecule, the “Best overall response (RECIST 1.1): Stable disease, %” value (NSCLC; 60 mg QD, 2 NSCLC patients) was 50.0%, the “Best overall response (RECIST 1.1): Complete response, %” value (NSCLC; 100 mg BID, 3 NSCLC patients) was 0.0% and the “Best overall response (RECIST 1.1): Non-CR/Non-PD, %” value (NSCLC; 100 mg BID, 3 NSCLC patients) was 0.0%. For the same molecule, the “Best overall response (RECIST 1.1): Not evaluable, %” value (NSCLC; 100 mg BID, 3 NSCLC patients) was 0.0%, the “Best overall response (RECIST 1.1): Partial response, %” value (NSCLC; 100 mg BID, 3 NSCLC patients) was 33.0% and the “Best overall response (RECIST 1.1): Progressive disease, %” value (NSCLC; 100 mg BID, 3 NSCLC patients) was 0.0%. The “Best overall response (RECIST 1.1): Stable disease, %” value (NSCLC; 100 mg BID, 3 NSCLC patients) was 66.7%, the “Best overall response (RECIST 1.1): Complete response, %” value (NSCLC; 120 mg QD, 4 NSCLC patients) was 0.0% and the “Best overall response (RECIST 1.1): Non-CR/Non-PD, %” value (NSCLC; 120 mg QD, 4 NSCLC patients) was 0.0%. For the same molecule, the “Best overall response (RECIST 1.1): Not evaluable, %” value (NSCLC; 120 mg QD, 4 NSCLC patients) was 0.0%, the “Best overall response (RECIST 1.1): Partial response, %” value (NSCLC; 120 mg QD, 4 NSCLC patients) was 50.0% and the “Best overall response (RECIST 1.1): Progressive disease, %” value (NSCLC; 120 mg QD, 4 NSCLC patients) was 25.0%. For the same molecule, the “Best overall response (RECIST 1.1): Stable disease, %” value (NSCLC; 120 mg QD, 4 NSCLC patients) was 25.0%, the “Best overall response (RECIST 1.1): Complete response, %” value (NSCLC; 150 mg BID, 2 NSCLC patients) was 0.0% and the “Best overall response (RECIST 1.1): Non-CR/Non-PD, %” value (NSCLC; 150 mg BID, 2 NSCLC patients) was 0.0%. The “Best overall response (RECIST 1.1): Not evaluable, %” value (NSCLC; 150 mg BID, 2 NSCLC patients) was 0.0%, the “Best overall response (RECIST 1.1): Partial response, %” value (NSCLC; 150 mg BID, 2 NSCLC patients) was 50.0% and the “Best overall response (RECIST 1.1): Progressive disease, %” value (NSCLC; 150 mg BID, 2 NSCLC patients) was 0.0%. The “Best overall response (RECIST 1.1): Stable disease, %” value (NSCLC; 150 mg BID, 2 NSCLC patients) was 50.0%, the “Best overall response (RECIST 1.1): Complete response, %” value (NSCLC; 180 mg QD, 5 NSCLC patients) was 0.0% and the “Best overall response (RECIST 1.1): Non-CR/Non-PD, %” value (NSCLC; 180 mg QD, 5 NSCLC patients) was 0.0%. For the same molecule, the “Best overall response (RECIST 1.1): Not evaluable, %” value (NSCLC; 180 mg QD, 5 NSCLC patients) was 20.0%.

Source: patent publication US20260207606A1, “DOSING SCHEDULE OF A SOLID DISPERSION OF A HER2 INHIBITOR” (Boehringer Ingelheim International GmbH, priority 2022, published 2026)
